{"source": "patent US10556860B2", "about": "“hTERT modulators and methods of use” (Arizona Board of Regents on Behalf of the University of …, priority 2015, dated 2020)", "key": {"G146A 5-12 G-quadruplex": {"tested_on": "G146A 5-12 G-quadruplex", "test": "CD kinetics, temperature-jump, G146A", "type": "biochemical, human", "conditions": "2 equiv", "description": "(§1) FIGS. 10A and 10B are a set of graphs showing (A) comparison of kinetics of initial folding rate of the WT 5-12 G-quadruplex with GTC365 and BRACO-19 by the temperature-jump method. (B) Enhanced initial folding rate of the 5-12 G-quadruplexes carrying different hTERT mutants by GTC365. The time-course CD signal of preheated oligo with compound or DMSO in a buffer containing 10 mM Tris-HCl (pH 7.5) and 5 mM KCl was monitored at 262 nm and 25° C.\n(§2) For the kinetics analysis using the temperature-jump method, theoligo in a buffer containing 10 mM Tris-HCl (pH 7.5) was heated forl min at 95° C., and then a mixture of KCl and compound was addedand incubated for 1 min. Meanwhile, the CD cuvette was also heatedat 95° C. As soon as the sample in the CD cuvette at the hightemperature was placed in the CD chamber, a time-dependent CDsignal at 262 nm was recorded immediately. The initial folding ratewas determined by one-phase association curve fitting (eq 1) of thekinetics curve using GraphPad Prism 5: Y=Y0+(Plateau−Y0)*(1−e^−kx) (1) where Y is the CD signal at any time point x, Y0 is the Y value whentime (x) is zero, plateau is the Y value at infinite time, and k is the rateconstant.\n(§3) To evaluate the comparative effects of GTC365 relative to BRACO-19 on the cooperative folding process, we carried out two different experiments. […]"}, "MCF7 cells": {"tested_on": "MCF7 cells", "test": "Cell cycle analysis by PI staining", "type": "cell-based, human", "conditions": "48 h treatment", "description": "Cell cycle analysis by PI staining. MCF7 cells were treated with GTC365 for 48 h. Cells were trypsinized and washed with cold D-PBS. Cell pellets were subjected to 70% EtOH fixation at −20° C. overnight. Cells were incubated with RNase A and PI for 3 h at 37° C. and then kept in ice before FACS analysis (FACScanto II, BD Biosciences, San Jose, Calif.).\nSince knockdown of hTERT arrests the cell cycle in the G0/G1 phase, the effects of GTC365 on the cell cycle were evaluated. GTC365 increased the population of the G0/G1 (from 57% to 71%) and G2/M phases (from 10% to 19%), whereas the S-phase was decreased (from 33% to 10%) in a dose-dependent manner with 48 h treatment. […] It is known that various anticancer drugs induce SLP in different cancer cells, leading to mitotic catastrophe as well as apoptotic cell death. Doxorubicin, one of the representative anticancer drugs, induced apoptosis and mitotic catastrophe accompanied by multiple nuclei with SLP. GTC365, like doxorubicin, appears to arrest cell proliferation and induce cell death, apoptosis, or mitotic catastrophe through downregulation of hTERT."}, "[1]": {"tested_on": "i-motif formed from the full-length C-rich strand of hTERT promoter", "test": "CD melting (Tm), i-motif", "type": "binding, human", "conditions": "pH 6.6", "description": "Circular dichroism. Oligomers of WT, G124A, G124/125A, G138/139A and G146A were synthesized and HPSF-purified by MGW Operon, Inc. For CD analysis, oligomers (5 μM) in a buffer containing 10 mM Tris-HCl (pH 7.5) and 140 mM KCl were annealed. For the CD analysis of the complex of oligomers and compounds, oligomers (5 μM) in a buffer containing 10 mM Tris-HCl (pH 7.5) and 5 mM KCl for GTC365 or 1 mM KCl for BRACO-19 were annealed. Oligomers and GTC365 or BRACO-19 were incubated overnight at room temperature. For the full-length of C-rich strand, the oligomer in a buffer of 10 mM Na cacodylate (pH 6.6) was annealed and then incubated with GTC365 overnight. CD analysis was conducted on a Jasco 810 spectropolarimeter (Jasco, Easton, Md.) using a quartz cell with 1 mm of path length, 1 nm of band width, and 1 s of response time for spectra at 20° C. Melting curves for the determination of Tm were obtained by recording ellipticity at 262 nm with increasing temperatures from 25° C. to 95° C. at a rate of 1.6° C./min. Tm of the C-rich strand with GTC365 was obtained from the CD signal at 286 nm within 10-60° C.\nIn contrast, BRACO-19 increased the Tm of telomeric G-quadruplex by ˜60% compared to that of the hTERT G-quadruplex at 0.5 and 1 equiv. A summary of the comparative Tms of GTC365 and BRACO-19 in hTERT and telomeric DNA is shown below."}, "G124A 5-12 G-quadruplex": {"tested_on": "G124A 5-12 G-quadruplex", "test": "CD kinetics, temperature-jump, G124A", "type": "biochemical, human", "conditions": "2 equiv", "description": "as §1, §2, §3"}, "[2]": {"tested_on": "pGL3 constructs that contain the G124A, G124/125A, G138/139A, and G146A mutations", "test": "Luciferase assay, somatic mutant constructs in MCF7 cells", "type": "cell-based, human", "conditions": "24 h", "description": "Luciferase assay. From gDNA extracted from HeLa cells, the hTERT core promoter region, including −350 bp to +12 from the transcription start site, was amplified using a pair of primers, including KpnI and NheI restriction sites, for cloning of pGL3-hTERT with WT promoter sequence. Mutant constructs were generated by PCR-based site-directed mutagenesis. The sequence of each construct was confirmed by sequencing analysis. MCF7 cells in 24-well plate were transfected with 200 ng of pGL3 construct and 5 ng of pRL-TK by Fugene® HD Transfection Reagent and then incubated for 6 h. Media were replaced by fresh ones and the cells were treated with GTC365 or BRACO-19. The same volume of DMSO served as a control. After 24 h of incubation, cells were lysed by passive lysis buffer (Promega) and subjected to dual-luciferase assay (Promega) using an FB12 luminometer. The ratio of firefly to renilla luciferase activity was normalized to the DMSO to obtain the relative luciferase activity.\nThe effect of GTC365 on the somatic mutants in the hTERT promoter region was also examined by transfecting cells with pGL3 constructs that contain the G124A, G124/125A, G138/139A, and G146A mutations."}}}
{"smiles": "N=C(N)NCCCS(=O)(=O)Nc1ccc(Nc2c3ccccc3nc3cc([N+](=O)[O-])ccc23)cc1", "note": "[GTC365]", "values": [{"measurement": "increase of initial folding rate", "setting": "G146A 5-12 G-quadruplex", "value": 0.054, "unit": "s⁻¹"}, {"measurement": "population in G2/M phase", "setting": "MCF7 cells; from 10% without compound", "value": 19, "unit": "%"}, {"measurement": "population in S-phase", "setting": "MCF7 cells; from 33% without compound", "value": 10, "unit": "%"}, {"measurement": "population in G0/G1 phase", "setting": "MCF7 cells; from 57% without compound", "value": 71, "unit": "%"}, {"measurement": "change in Tm of the i-motif", "setting": "[1]", "value": "little change in Tm"}, {"measurement": "increase of initial folding rate", "setting": "G124A 5-12 G-quadruplex", "value": 0.049, "unit": "s⁻¹"}, {"measurement": "luciferase activity of the mutants", "setting": "[2]", "value": "decreased luciferase activity of the mutants in a dose-dependent manner"}]}
